The target of one test is T1, Full length Akt2 (Homo sapiens, UniProt P31751).
T1 construct: Full length Akt1 (cat #P2999), Akt2 (cat #PV3184); purchased PerkinElmer PV3184
Description: In vitro Akt kinase enzymatic assay (HTRF), Akt2. It is filed as biochemical. Conditions: 0.6 nM Akt2, substrate solution with 5 mM ATP, 25° C. 1 hr. In outline:
(§1)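 Full-length enzyme (0.4 nM Akt1 or 0.6 nM Akt2/Akt3 in the enzyme solution) was combined with a substrate solution of 0.1 μM ULight-Crosstide plus 5 mM ATP in pH 7.8 HEPES/MgCl2/DTT/Tween20 buffer and reacted 1 hr at 25° C. The EDTA stop contained Eu anti-phospho-Crosstide; IC50 was fitted from 11-point HTRF inhibition curves.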

The subject of test [1] is LNCaP cells (human prostate tumor cell line). Description: Akt LNCaP proliferation assay (MTS). It counts as cell-based. Conditions: 48 hours. The method, boiled down: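 Cells plated at 10,000/well in RPMI with 2% FBS overnight at 37° C., 5% CO2, then exposed to compound at 1000 nM to 0.5 nM (3-fold dilutions) for 48 hours. Viable cells measured by MTS colorimetric read-out after 2 hours; IC50 taken as concentration giving 50% inhibition of total proliferation.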

For the next test, the target named is T2, Full length PKA (Homo sapiens, UniProt P17612).
T2 construct: Full length PKA (cat #P2912); purchased Invitrogen P2912
Description: PKA in vitro enzymatic assay (HTRF). It is filed as biochemical. Conditions: 0.035 nM enzyme solution, substrate solution with 5 mM ATP, 25° C. 1 hr. In outline: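 Reaction buffer was 50 mM HEPES pH 7.8, 10 mM MgCl2, 5 mM DTT and 0.005% Tween20. Enzyme solution was 0.035 nM, and substrate solution was 0.1 μM fluorescein-CREBtide with 5 mM ATP. After 1 h at 25°C, EDTA plus Tb anti-pS133 antibody was added, TR-FRET was read, and IC50 was fitted from 11-point, 3-fold % inhibition curves.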
(TR-FRET usually uses a lanthanide donor and a delayed reading to cut background.)

The next test addresses T3, Full length Akt1 (Homo sapiens, UniProt P31749).
T3 construct: Full length Akt1 (cat #P2999); purchased PerkinElmer P2999
As to the kind of experiment: In vitro Akt kinase enzymatic assay (HTRF), Akt1. It is filed as biochemical. The following applies: 0.4 nM Akt1, substrate solution with 5 mM ATP, 25° C. 1 hr. In outline:
as §1

A further test concerns the target T4, Full length Akt3 (Homo sapiens, UniProt Q9Y243).
T4 construct: Full length Akt1 (cat #P2999), Akt2 (cat #PV3184), Akt3 (cat #PV3185); purchased PerkinElmer PV3185
Description: In vitro Akt kinase enzymatic assay (HTRF), Akt3. It counts as biochemical. Conditions: 0.6 nM Akt3, substrate solution with 5 mM ATP, 25° C. 1 hr. The method, boiled down: as §1

[2] abbreviates: 2% fetal bovine serum, class symbols.

Some results are limits rather than exact numbers.

Usually IC50 stands for the midpoint of a concentration-inhibition curve. Higher therefore signals lower potency.

T3 sequence (P31749 whole entry): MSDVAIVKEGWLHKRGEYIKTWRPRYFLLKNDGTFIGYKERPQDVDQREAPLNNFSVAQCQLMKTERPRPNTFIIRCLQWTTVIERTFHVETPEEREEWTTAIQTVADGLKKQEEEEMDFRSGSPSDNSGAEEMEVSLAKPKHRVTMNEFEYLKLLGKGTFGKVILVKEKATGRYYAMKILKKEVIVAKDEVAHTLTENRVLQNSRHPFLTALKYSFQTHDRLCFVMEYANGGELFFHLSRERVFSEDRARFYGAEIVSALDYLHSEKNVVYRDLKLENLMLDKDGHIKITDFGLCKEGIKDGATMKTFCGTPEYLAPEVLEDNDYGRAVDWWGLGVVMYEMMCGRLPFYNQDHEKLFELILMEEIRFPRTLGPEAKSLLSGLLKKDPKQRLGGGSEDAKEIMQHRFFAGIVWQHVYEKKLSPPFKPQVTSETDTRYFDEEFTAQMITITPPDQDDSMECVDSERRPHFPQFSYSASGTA
T4 sequence (Q9Y243 whole entry): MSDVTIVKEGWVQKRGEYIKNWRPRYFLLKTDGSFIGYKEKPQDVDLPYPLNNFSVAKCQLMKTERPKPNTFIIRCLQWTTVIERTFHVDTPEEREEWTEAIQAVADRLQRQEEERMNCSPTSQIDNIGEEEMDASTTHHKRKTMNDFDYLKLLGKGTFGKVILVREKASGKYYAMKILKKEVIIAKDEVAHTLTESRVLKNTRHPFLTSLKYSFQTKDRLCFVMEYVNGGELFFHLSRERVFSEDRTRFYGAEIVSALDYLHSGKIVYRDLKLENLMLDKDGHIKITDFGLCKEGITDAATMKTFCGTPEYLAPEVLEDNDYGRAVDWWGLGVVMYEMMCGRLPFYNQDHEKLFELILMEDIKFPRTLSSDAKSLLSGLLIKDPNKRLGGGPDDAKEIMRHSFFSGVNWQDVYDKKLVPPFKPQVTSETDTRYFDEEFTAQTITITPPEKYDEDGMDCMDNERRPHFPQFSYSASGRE
T1 sequence (P31751 whole entry): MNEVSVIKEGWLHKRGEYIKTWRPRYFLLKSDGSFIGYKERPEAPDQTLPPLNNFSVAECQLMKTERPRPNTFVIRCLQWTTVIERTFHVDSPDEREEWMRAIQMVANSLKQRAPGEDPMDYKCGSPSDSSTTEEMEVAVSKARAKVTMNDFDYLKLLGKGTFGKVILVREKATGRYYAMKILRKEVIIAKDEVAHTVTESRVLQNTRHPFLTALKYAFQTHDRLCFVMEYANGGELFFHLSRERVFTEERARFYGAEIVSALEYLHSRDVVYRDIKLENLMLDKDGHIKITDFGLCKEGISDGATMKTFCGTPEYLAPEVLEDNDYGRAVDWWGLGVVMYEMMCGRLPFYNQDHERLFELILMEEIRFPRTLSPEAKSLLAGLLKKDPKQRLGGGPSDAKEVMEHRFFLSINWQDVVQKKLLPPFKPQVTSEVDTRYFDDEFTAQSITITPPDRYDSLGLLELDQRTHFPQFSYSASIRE

On to `Cn1ncc(Cl)c1-c1ccc2c(c1)CN([C@H](CN)Cc1cccc(F)c1)C2=O` [Example 2, 2-[(1S)-2-amino-1-(3-fluorobenzyl)ethyl]-5-(4-chloro-1-methyl-1H-pyrazol-5-yl)isoindolin-1-one], for which the IC50 against Full length Akt2 was below 500 nM; in test [1] (setting [2]), below 500 nM; against Full length PKA it was 0.5 to 5 µM; at Full length Akt1, below 500 nM; against Full length Akt3, below 500 nM.

As to `Cn1ncc(Cl)c1-c1ccc2c(c1)CN([C@H](CN)Cc1cccc(-c3ccncc3)c1)C2=O` [Example 72, 2-[(1S)-2-amino-1-(3-pyridin-4-ylbenzyl)ethyl]-5-(4-chloro-1-methyl-1H-pyrazol-5-yl)isoindolin-1-one], the half-inhibitory concentration (IC50) at Full length Akt2 is above 5000 nM; in test [1] (given as a bound, final concentrations 1000 nM to 0.5 nM), above 1000 nM; at Full length PKA, above 5 µM; on Full length Akt1, above 5000 nM; on Full length Akt3 it was above 5000 nM.

For `Cn1nccc1-c1ccc2c(c1)CN([C@H](CN)Cc1cccc(C#N)c1)C2=O` [Example 75, 3-{(2S)-3-amino-2-[5-(1-methyl-1H-pyrazol-5-yl)-1-oxo-1,3-dihydro-2H-isoindol-2-yl]propyl}benzonitrile], the IC50 was below 500 nM on Full length Akt2; below 500 nM in test [1] (setting [2]); above 5 µM against Full length PKA; 500 to 5000 nM against Full length Akt1; 500 to 5000 nM at Full length Akt3.

Turning to `Cn1ncc(Cl)c1-c1ccc2c(c1)CN([C@H](CN)Cc1ccccc1F)C2=O` (stereo in doubt) [Example 60, 2-[2-amino-1-(2-fluorobenzyl)ethyl]-5-(4-chloro-1-methyl-1H-pyrazol-5-yl)isoindolin-1-one], the IC50 was below 500 nM against Full length Akt2; below 500 nM in test [1] (setting [2]); above 5 µM against Full length PKA; below 500 nM on Full length Akt1; below 500 nM at Full length Akt3.

Values taken from patent US8895571B2, “Isoindolinone and pyrrolopyridinone derivatives as Akt inhibitors” (Incyte Corporation, priority 2011, dated 2014).
